Results reported in US20240368163A1, “COMPOUNDS AND METHODS FOR MODULATING SPLICING” (REMIX THERAPEUTICS INC., priority 2021, published 2024).
Where two headings read alike, the source gives them in different places.

Columns and labels:
Assay type in all cases: cell-based, human
Target C [1] = test: HiBiT protein abundance assay, Target C; conditions: Table 13A, modified K562 cells
How it was run: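 HiBiT knock-in K562-derived cells, 10000 cells/well, were treated 24 h at 37 °C with a 10-point 3-fold dilution series (top 10 μM final, DMSO ≤0.25%). Lytic HiBiT luminescence was normalized to unmodified K562 and DMSO controls; IC50 was interpolated at 50% from a four-parameter logistic fit.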

HTT [2] = test: HiBiT protein abundance assay, HTT; conditions: Table 13A, modified K562 cells
How it was run: (§1)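 K562 cells with endogenous HiBiT-tagged target were treated 24 h at 37 °C with compound (10-point 3-fold dilution, top 10 μM final, DMSO ≤0.25%). Lytic LgBiT luminescence was normalized to unmodified K562 (baseline) and DMSO-treated tagged cells; IC50 interpolated at 50% from four-parameter logistic fit.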

Target C [3] = test: Splicing RT-qPCR panel, Target C canonical junction (CJ) mRNA; conditions: RT-qPCR panel, canonical junction mRNA, compound concentration having 50% response in CJ decrease, read-out: Target C IC50 (decrease in CJ mRNA levels)
How it was run: (§2)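 A673 or K562 cells treated 24 h at 37 °C with 11-point 3-fold dilutions, top 10 uM, DMSO ≤0.25%. Lysates read by RT-qPCR for CJ and AJ isoforms, normalized to GAPDH, GUSB or PPIA; ΔΔCt vs DMSO converted to RQ, then percent response.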

MYB [4] = test: Splicing RT-qPCR assay, MYB mRNA canonical junction (CJ) and alternative junction (AJ); conditions: RT-qPCR panel, canonical junction mRNA, compound concentration having 50% response in CJ decrease, read-out: MYB IC50 (decrease in CJ mRNA levels)
How it was run: as §2

SMN2 = test: Splicing RT-qPCR panel, SMN2 canonical junction (CJ) mRNA; conditions: RT-qPCR panel, canonical junction mRNA, compound concentration having 50% response in CJ decrease, read-out: SMN2 IC50 (decrease in CJ mRNA levels)
How it was run: as §2

HTT [5] = test: Splicing RT-qPCR assay, HTT mRNA canonical junction (CJ) and alternative junction (AJ); conditions: RT-qPCR panel, canonical junction mRNA, compound concentration having 50% response in CJ decrease, read-out: HTT IC50 (decrease in CJ mRNA levels)
How it was run: as §2

MYB [6] = test: HiBiT protein abundance assay, MYB; conditions: Table 13A, modified K562 cells
How it was run: as §1

Compound	IC50 (Target C [1]; Homo sapiens, K562, 24 h)	IC50 (HTT [2]; Homo sapiens, K562, 24 h)	IC50 (Target C [3]; Homo sapiens)	IC50 (MYB [4]; Homo sapiens)	IC50 (SMN2; Homo sapiens)	IC50 (HTT [5]; Homo sapiens)	IC50 (MYB [6]; Homo sapiens, K562, 24 h)	IC50 (Target C [1]; 24 hours)	IC50 (HTT [2]; 24 hours)	IC50 (Target C [3])	IC50 (MYB [4])	IC50 (SMN2)	IC50 (HTT [5])	IC50 (MYB [6]; 24 hours)
c1cnn(-c2ccc(-c3cnc(N4CCC(NC5CC5)C4)nn3)c3cn[nH]c23)c1 (centres unmarked) [Compound 484, N-cyclopropyl-1-[6-(7-pyrazol-1-yl-1H-indazol-4-yl)-1,2,4-triazin-3-yl]pyrrolidin-3-amine]	1 to 10 µM	1 to 10 µM	> 10 µM	> 10 µM	1 to 10 µM	1 to 10 µM	> 10 µM							
CNC1CCN(c2ncc(-c3ccc(-n4cccn4)c4[nH]ncc34)nn2)C1 (centres unmarked) [Compound 485, N-methyl-1-[6-(7-pyrazol-1-yl-1H-indazol-4-yl)-1,2,4-triazin-3-yl]pyrrolidin-3-amine]	1 to 10 µM	1 to 10 µM	> 10 µM	1 to 10 µM	1 to 10 µM	1 to 10 µM	1 to 10 µM							
CC1(C)CC(Oc2ccc(-c3ccc(-n4cccn4)c4[nH]ncc34)nn2)CC(C)(C)N1 [Compound 554]	0.1 to 1 µM	0.1 to 1 µM	1 to 10 µM	0.1 to 1 µM	0.1 to 1 µM	0.1 to 1 µM	0.1 to 1 µM							
CC1(C)CC(Nc2ccc(-c3ccc(-n4cccn4)c4[nH]ncc34)nn2)CC(C)(C)N1 [Compound 558]	< 0.1 µM	< 0.1 µM	0.1 to 1 µM	0.1 to 1 µM	< 0.1 µM	0.1 to 1 µM	0.1 to 1 µM							
CN(c1ccc(-c2ccc(-n3cccn3)c3[nH]ncc23)nn1)C1CC(C)(C)NC(C)(C)C1 [Compound 559]	0.1 to 1 µM	0.1 to 1 µM	1 to 10 µM	1 to 10 µM	0.1 to 1 µM	0.1 to 1 µM	0.1 to 1 µM							
C[C@@H]1CN(c2ncc(-c3ccc(-c4cn[nH]c4)c4ncsc34)nn2)C[C@H](C)N1 [Compound 562]	1 to 10 µM	1 to 10 µM	> 10 µM	> 10 µM	1 to 10 µM	> 10 µM	1 to 10 µM							

Continued, values first:

IC50 (Target C [1]; Homo sapiens, K562, 24 h)	IC50 (HTT [2]; Homo sapiens, K562, 24 h)	IC50 (Target C [3]; Homo sapiens)	IC50 (MYB [4]; Homo sapiens)	IC50 (SMN2; Homo sapiens)	IC50 (HTT [5]; Homo sapiens)	IC50 (MYB [6]; Homo sapiens, K562, 24 h)	IC50 (Target C [1]; 24 hours)	IC50 (HTT [2]; 24 hours)	IC50 (Target C [3])	IC50 (MYB [4])	IC50 (SMN2)	IC50 (HTT [5])	IC50 (MYB [6]; 24 hours)	Compound
0.1 to 1 µM	0.1 to 1 µM	0.1 to 1 µM	1 to 10 µM	0.1 to 1 µM	< 0.1 µM	1 to 10 µM								c1cnn(-c2ccc(-c3cnc(N4CCNC(C5CC5)C4)nn3)c3cn[nH]c23)c1 (centres unmarked) [Compound 511]
							1 to 10 µM	1 to 10 µM	> 10 µM	> 10 µM	1 to 10 µM	1 to 10 µM	> 10 µM	c1cnn(-c2ccc(-c3cnc(N4CCC(NC5CC5)C4)nn3)c3cn[nH]c23)c1 (centres unmarked) [Compound 548]
							1 to 10 µM	1 to 10 µM	> 10 µM	1 to 10 µM	1 to 10 µM	1 to 10 µM	1 to 10 µM	CNC1CCN(c2ncc(-c3ccc(-n4cccn4)c4[nH]ncc34)nn2)C1 (centres unmarked) [Compound 549]
0.1 to 1 µM	0.1 to 1 µM	1 to 10 µM	1 to 10 µM	0.1 to 1 µM	0.1 to 1 µM	1 to 10 µM								c1nc2c(-c3cn[nH]c3)ccc(-c3cnc(N4CCN[C@@H](C5CC5)C4)nn3)c2s1 [Compound 552]
0.1 to 1 µM	0.1 to 1 µM	1 to 10 µM	1 to 10 µM	0.1 to 1 µM	0.1 to 1 µM	1 to 10 µM								c1cnn(-c2ccc(-c3ccc(N4CCNC(C5CC5)C4)nn3)c3cn[nH]c23)c1 (centres unmarked) [Compound 560]
